{
  "source": "paper PMC3579193",
  "about": "“Elucidation of relaxin-3 binding interactions in the extracellular loops of RXFP3” (Frontiers in Endocrinology, 2013)",
  "key": {"[1]": {"test_system": "RXFP4", "conditions": "ref Liu et al., 2003a; cited from earlier work", "excerpt": "Relaxin-3 is a member of the relaxin peptide family. Peptides from this family activate relaxin family peptide (RXFP) receptors, which are Type I or Class A G protein-coupled receptors (GPCRs). […] The rela ... || Based on the hypothesis that coevolution of relaxin-3 and RXFP3 occurred in vertebrates and that residues important for relaxin-3 binding and activation should therefore be conserved we performed multiple sequence alignments of all vertebrate RXFP3 sequences. […] Figure 1A highlights sequence alignments of representative mammalian species (human, chimpanzee, rat, mouse, platypus) and representative lower vertebrate species (Frog and Zebrafish) from this analysis compa ... || Based on the hypothesis that coevolution of relaxin-3 and RXFP3 occurred in vertebrates, and in the knowledge that the key relaxin-3 B-chain residues are conserved across all vertebrate species ([Wilkinson et al., 2005b]), we performed multiple sequence alignments of all vertebrate RXFP3 sequences to identify highly conserved residues in the ELs and NT domain that may be involved in relaxin-3 binding. […] We have focused on glutamic (E) and aspartic acid (D) residues ..."}, "[2]": {"biological_target": "T1, HA-RXFP3 (Homo sapiens, UniProt Q9NSD7)", "T1 construct": "expressed in transfected cells; host or cells: HEK-293T", "T1 sequence (Q9NSD7 2-469 limits assumed)": "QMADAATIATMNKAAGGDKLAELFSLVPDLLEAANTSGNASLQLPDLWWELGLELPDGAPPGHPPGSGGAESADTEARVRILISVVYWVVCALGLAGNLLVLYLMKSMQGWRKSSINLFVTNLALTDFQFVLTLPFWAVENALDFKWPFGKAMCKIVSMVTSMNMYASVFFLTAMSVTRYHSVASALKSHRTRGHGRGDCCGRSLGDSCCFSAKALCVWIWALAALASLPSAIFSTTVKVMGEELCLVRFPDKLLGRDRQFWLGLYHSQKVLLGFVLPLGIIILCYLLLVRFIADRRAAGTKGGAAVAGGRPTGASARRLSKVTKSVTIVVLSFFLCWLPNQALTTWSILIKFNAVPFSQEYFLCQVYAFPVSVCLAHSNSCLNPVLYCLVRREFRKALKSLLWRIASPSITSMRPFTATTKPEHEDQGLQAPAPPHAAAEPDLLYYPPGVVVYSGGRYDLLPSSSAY", "assay": "Competition binding with Eu-H3/I5, HA-RXFP3", "conditions": "HA-RXFP3 vs wild-type RXFP3, competition binding", "protocol": "HEK-293T cells were transfected in 96 well optiplates (Perkin Elmer) with plasmids encoding the constructs of interest and Eu-H3/I5 binding assays conducted as described previously ([Luo et al., 2010]; [Haugaard-Kedstrom et al., 2011]). […] Binding data are expressed as mean ± standard error of mean (SEM) of % specific binding of triplicate measurements pooled from at least three independent experiments. Data were analyzed using Graphpad PRISM (Graphpad Inc.) and a non-linear regression one-site binding model was used to plot curves and calculate pIC50 values. All the RXFP3 constructs used in this study contained an N-terminal HA epitope. The HA epitope was detected using a purified mouse monoclonal anti-HA antibody [HA.11(16B12), Covance] and a Alexafluor488-labeled goat anti mouse IgG (Invitrogen) in cell surface expression assays that were performed in 24 well plates as previously described ([Yan et al., 2008]). […] Specific binding data for RXFP3 mutants was expressed as mean ± SEM of % specific binding/%HA-RXFP3 cell surface expression of triplicate measurements pooled from at least three independent experiments. Pooled data were analyzed using one-way ANOVA coupled to Newman–Keuls multiple comparison test for multiple group comparison."}, "[3]": {"biological_target": "T2, HA-RXFP3 D75A (Homo sapiens, UniProt Q9NSD7, D75A)", "T2 construct": "expressed in transfected cells; host or cells: HEK-293T", "T2 sequence (Q9NSD7 2-469 D75A limits assumed)": "T1 sequence (Q9NSD7 2-469 limits assumed) with D74A", "assay": "Competition binding with Eu-H3/I5, HA-RXFP3 D75A", "description": "(§1) PCR reactions and cloning were undertaken as previously described ([Scott et al., 2006], [2012]).\n(§2) The same protocol was used to prepare DNA templates of all Glu/Asp to Ala mutants, entailing a single codon change except for D47A/E51A, E55A/D58A, and E141A/D145A which required a double codon change both to Ala. The forward and reverse primers for all mutants are listed in Table 1 and mutagenesis reactions on pcDNA3.1zeo (+)-HA-RXFP3 were performed as previously described ([Scott et al., 2006]; [Yan et al., 2008]). […]\n(§3) HEK-293T cells were transfected in 96 well optiplates (Perkin Elmer) with plasmids encoding the constructs of interest and Eu-H3/I5 binding assays conducted as described previously ([Luo et al., 2010]; [Haugaard-Kedstrom et al., 2011]). […] Binding data are expressed as mean ± standard error of mean (SEM) of % specific binding of triplicate measurements pooled from at least three independent experiments. Data were analyzed using Graphpad PRISM (Graphpad Inc.) and a non-linear regression one-site binding model was used to plot curves and calculate pIC50 values. […] The HA epitope was detected using a purified mouse monoclonal anti-HA antibody [HA.11(16B12), Covance] and a Alexafluor488-labeled goat anti mouse IgG (Invitrogen) in cell surface expression assays that were performed in 24 well plates as previously described ([Yan et al., 2008]). […]"}, "[4]": {"biological_target": "T3, HA-RXFP3 245A (Homo sapiens, UniProt Q9NSD7, E245A)", "T3 construct": "expressed in transfected cells; host or cells: HEK-293T", "T3 sequence (Q9NSD7 2-469 E245A limits assumed)": "T1 sequence (Q9NSD7 2-469 limits assumed) with E244A", "assay": "Competition binding with Eu-H3/I5, HA-RXFP3 E245A", "description": "as §1, §2, §3"}},
  "note": "Changes are numbered by the printed parent chain. Entries after “also recorded” stand apart in the source; their conditions may differ.",
  "data": [
    {"smiles": "CC[C@H](C)[C@@H]1NC(=O)[C@H](Cc2ccccc2)NC(=O)[C@H](CCC(=O)O)NC(=O)[C@H](CCCNC(=N)N)NC(=O)CNC(=O)[C@@H](NC(=O)[C@H](CC(C)C)NC(=O)[C@H](CCCNC(=N)N)NC(=O)[C@@H](NC(=O)CNC(=O)[C@H](Cc2ccc(O)cc2)NC(=O)[C@@H]2CCCN2C(=O)[C@H](C)NC(=O)[C@H](C)NC(=O)[C@@H](N)CCCNC(=N)N)C(C)C)CSSC[C@@H]2NC(=O)[C@@H](NC(=O)[C@H](CO)NC(=O)[C@H](CO)NC(=O)[C@H](CO)NC(=O)[C@H](CC(C)C)NC(=O)CNC(=O)[C@H](C)NC(=O)[C@H](CC(C)C)NC(=O)[C@@H](NC(=O)[C@@H](N)CC(=O)O)C(C)C)CSSC[C@H](NC(=O)CNC(=O)[C@H](Cc3c[nH]c4ccccc34)NC(=O)[C@H](CCCCN)NC2=O)C(=O)N[C@@H](CO)C(=O)N[C@@H](CCCCN)C(=O)N[C@@H](CO)C(=O)N[C@@H](CCC(=O)O)C(=O)N[C@@H]([C@@H](C)CC)C(=O)N[C@@H](CO)C(=O)N[C@@H](CO)C(=O)N[C@@H](CC(C)C)C(=O)N[C@H](C(=O)O)CSSC[C@@H](C(=O)NCC(=O)NCC(=O)N[C@@H](CO)C(=O)N[C@@H](CCCNC(=N)N)C(=O)N[C@@H](Cc2c[nH]c3ccccc23)C(=O)O)NC(=O)[C@H]([C@@H](C)O)NC(=O)[C@H](Cc2ccccc2)NC(=O)[C@H]([C@@H](C)CC)NC(=O)[C@H](C(C)C)NC(=O)[C@H](C)NC(=O)[C@H](CCCNC(=N)N)NC1=O", "note": "[H3 relaxin]", "values": [
      {"measurement": "binding to and activation of RXFP4", "setting": "[1]", "value": "binds to and activates human RXFP4"},
      {"measurement": "binding affinity compared with wild-type RXFP3", "setting": "[2]", "value": "no difference in the binding affinity"},
      {"measurement": "IC50", "setting": "[3]", "value": 0.02, "unit": "µM"},
      {"measurement": "affinity compared with HA-RXFP3", "setting": "[3]; competition binding", "value": "no significant difference in the affinity"},
      {"measurement": "IC50", "setting": "[4]", "value": 0.0447, "unit": "µM"},
      {"measurement": "affinity compared with HA-RXFP3", "setting": "[4]; competition binding, p > 0.05", "value": "slightly lower H3 relaxin binding affinity but this was not significantly different from HA-RXFP3; also recorded: no significant difference in H3 relaxin affinity; also recorded: did not show a significant drop in binding"}
    ]}
  ]
}
